Source: patent US8129396B2, “2-[1H-benzimidazol-2(3H)-ylidene]-2-(pyrimidin-2-yl)acetamides and 2-[benzothiazol-2(3H)-ylidene]-2-(pyrimidin-2-yl)acetamides as kinase inhibitors” (Telik, Inc., priority 2008, dated 2012)

How the values were obtained:
Aurora A kinase = biological target: T1, Aurora A kinase (Homo sapiens, UniProt O14965); experiment: Aurora A kinase assay (IMAP fluorescence polarization); format: biochemical; conditions: 10 μM ATP; rounded to 1 significant figure; read-out: Aur-A IC50
T1 construct: purchased Upstate Biotech
T1 sequence (O14965 1-403): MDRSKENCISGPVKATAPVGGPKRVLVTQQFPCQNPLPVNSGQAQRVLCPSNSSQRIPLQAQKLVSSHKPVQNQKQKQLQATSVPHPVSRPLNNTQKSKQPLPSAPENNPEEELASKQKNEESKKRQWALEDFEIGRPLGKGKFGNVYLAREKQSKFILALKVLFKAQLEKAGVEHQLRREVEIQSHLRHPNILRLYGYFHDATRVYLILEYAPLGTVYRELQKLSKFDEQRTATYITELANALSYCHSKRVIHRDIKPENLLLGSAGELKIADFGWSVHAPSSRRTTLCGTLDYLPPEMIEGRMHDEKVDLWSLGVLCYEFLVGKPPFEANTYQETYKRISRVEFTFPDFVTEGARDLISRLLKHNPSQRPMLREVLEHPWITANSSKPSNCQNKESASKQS
How it was run: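 Compounds (eight 3-fold dilutions, 2.5% DMSO final) were preincubated 5 min at room temperature with Aurora A kinase in buffer with 1 mM DTT. Reaction with 100 nM fluorescein-PKAtide and 10 μM ATP ran 45 min at room temperature, then was stopped with IMAP binding reagent; fluorescence polarization was read after 30 min.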

Aurora B kinase = biological target: T2, Aurora B kinase (Homo sapiens, UniProt Q96GD4); experiment: Aurora B kinase assay (IMAP fluorescence polarization); format: biochemical; conditions: 10 μM ATP; rounded to 1 significant figure; read-out: Aur-B IC50
T2 construct: purchased BPS Bioscience
T2 sequence (Q96GD4 whole entry): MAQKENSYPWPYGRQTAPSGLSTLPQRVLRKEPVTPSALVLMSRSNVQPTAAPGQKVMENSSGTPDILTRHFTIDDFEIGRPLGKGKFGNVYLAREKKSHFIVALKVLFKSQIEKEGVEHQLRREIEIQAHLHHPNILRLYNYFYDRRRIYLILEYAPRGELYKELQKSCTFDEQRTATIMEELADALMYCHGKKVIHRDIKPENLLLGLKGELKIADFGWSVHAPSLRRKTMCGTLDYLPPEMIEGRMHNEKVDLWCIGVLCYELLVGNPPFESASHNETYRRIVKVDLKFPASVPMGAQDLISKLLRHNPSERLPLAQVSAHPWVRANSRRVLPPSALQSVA
How it was run: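 Reaction started with 100 nM fluorescein-labelled PKAtide and 10 μM ATP, run 45 min at room temperature, then stopped with IMAP binding reagent (1:400). After 30 min shaking at room temperature, fluorescence polarization read; run in duplicate with solvent control.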

VEGFR2 kinase = biological target: T3, VEGFR2 kinase (Homo sapiens, UniProt P35968); experiment: VEGFR2 kinase assay; format: biochemical; conditions: 6 μM ATP, 1 mM MnCl2; rounded to 1 significant figure
T3 construct: purchased Cell Signaling Technology
T3 sequence (P35968 20-1356): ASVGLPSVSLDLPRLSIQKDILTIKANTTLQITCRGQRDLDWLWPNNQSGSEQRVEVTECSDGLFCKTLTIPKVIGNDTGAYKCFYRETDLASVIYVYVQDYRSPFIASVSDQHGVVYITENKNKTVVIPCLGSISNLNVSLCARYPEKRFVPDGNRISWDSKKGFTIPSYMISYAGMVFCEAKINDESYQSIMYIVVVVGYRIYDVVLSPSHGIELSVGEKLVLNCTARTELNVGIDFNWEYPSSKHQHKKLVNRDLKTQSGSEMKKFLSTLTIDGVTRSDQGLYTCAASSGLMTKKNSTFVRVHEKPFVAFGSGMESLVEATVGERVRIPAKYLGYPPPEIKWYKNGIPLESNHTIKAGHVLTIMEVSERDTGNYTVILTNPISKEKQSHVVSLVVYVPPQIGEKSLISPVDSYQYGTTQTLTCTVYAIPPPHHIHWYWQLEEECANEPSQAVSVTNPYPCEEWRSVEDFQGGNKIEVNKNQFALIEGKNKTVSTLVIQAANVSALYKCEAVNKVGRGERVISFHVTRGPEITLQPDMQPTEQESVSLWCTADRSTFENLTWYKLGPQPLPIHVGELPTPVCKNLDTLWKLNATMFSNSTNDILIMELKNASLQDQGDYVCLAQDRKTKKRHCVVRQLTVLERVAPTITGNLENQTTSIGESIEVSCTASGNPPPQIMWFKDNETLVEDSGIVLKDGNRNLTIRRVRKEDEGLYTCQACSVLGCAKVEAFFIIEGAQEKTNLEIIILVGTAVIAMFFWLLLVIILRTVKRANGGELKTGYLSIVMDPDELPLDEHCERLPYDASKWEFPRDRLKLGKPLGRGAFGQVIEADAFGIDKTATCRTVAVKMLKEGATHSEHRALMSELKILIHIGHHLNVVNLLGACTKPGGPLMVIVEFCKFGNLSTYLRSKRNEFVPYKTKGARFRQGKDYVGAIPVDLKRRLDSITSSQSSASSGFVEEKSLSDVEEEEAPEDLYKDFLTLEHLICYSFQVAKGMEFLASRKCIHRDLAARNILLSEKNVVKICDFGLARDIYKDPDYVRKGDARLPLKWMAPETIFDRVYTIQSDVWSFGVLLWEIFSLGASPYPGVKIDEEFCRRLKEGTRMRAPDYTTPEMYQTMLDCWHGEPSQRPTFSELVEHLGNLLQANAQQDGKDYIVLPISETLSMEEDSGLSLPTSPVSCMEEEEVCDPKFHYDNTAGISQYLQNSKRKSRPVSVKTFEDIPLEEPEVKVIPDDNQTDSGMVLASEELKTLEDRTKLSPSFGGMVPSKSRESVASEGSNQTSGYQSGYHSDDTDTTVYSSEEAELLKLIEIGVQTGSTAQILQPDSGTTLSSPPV
How it was run: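 VEGFR2 phosphorylates CSKtide with 6 μM ATP and 1 mM MnCl2 for 1 hr, otherwise following the Aurora A kinase protocol. Detection by IMAP fluorescence polarization, binding reagent diluted 1:1200 in 1:1 binding buffer A/B. Run in duplicate with solvent control.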

p-H3 in HCT116 cells = experiment: Histone phosphorylation (p-H3) assay; format: cell-based; conditions: Homo sapiens, HCT-116; HCT116 cells, 4 hr incubation; read-out: p-H3 IC50
How it was run: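 HCT116 cells (2.5×10^4/well, attached overnight) treated 4 h with 8-point 3-fold compound dilutions at 0.5% DMSO. Lysates dot-blotted onto nitrocellulose and probed for p-H3 with β-actin on the same membrane, fluorescent secondary antibodies, Odyssey scan; duplicate wells.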

[1] = tested on: HCT116 (human colon carcinoma) cells; experiment: HCT116 cytotoxicity assay (CellTiter-Glo); format: cell-based; conditions: HCT-116, 72 h, cytotoxicity, three days culture, read-out: HCT116 IC50
[2] = tested on: HL60 (human promyelocytic leukemia) cells; experiment: HL60 cytotoxicity assay (CellTiter-Glo); format: cell-based; conditions: HL-60, 72 h, cytotoxicity, three days culture, read-out: HL60 IC50
From the text: The cell lines HL60 (human promyelocytic leukemia) and HCT116 (human colon carcinoma) were obtained from the American Type Culture Collection, Manassas, Va., U.S.A., and HUVEC-2 (human umbilical vein endothelial cells) from BD Biosciences, Bedford, Mass., U.S.A. Aurora A kinase was obtained from Upstate Biotech, Billerica, Mass., U.S.A.; Aurora B kinase from BPS Bioscience, San Diego, Calif., U.S.A.; and VEGFR2 kinase from Cell Signaling Technology, Danvers, Mass., U.S.A. The IMAP FP Screening Express kit was obtained from Molecular Devices, Sunnyvale, Calif., U.S.A.; the CellTiter-Glo assay kit from Promega Corporation, Madison, Wis., U.S.A.; and the Cellular DNA Cytometric Analysis Reagent Kit and BrdU labeling and detection kit from Roche Diagnostics Corporation, Indianapolis, Ind., U.S.A. All products were used in accordance with manufacturer's directions. Kinase inhibition assays and the histone phosphorylation (p-H3) assay were conducted in duplicate, and the cytotoxicity and HUVEC proliferation assays were conducted in triplicate, in each case with solvent control.
Log-phase cells were trypsinized, collected by centrifugation, and resuspended in a small volume of fresh medium, and the density of viable cells was determined following Trypan Blue staining. Cells were diluted in fresh media (1×10^4 cells/mL for HL60 and 4×10^4 cells/mL for HCT116 cells), the test compounds (concentrations between 0.1 μM and 200 μM, dissolved in DMSO, 50 μL) added immediately after dilution to achieve a final DMSO concentration of 0.5%, then the suspensions added at 150 μL/well to 96-well plates, and incubated overnight to allow attachment in the case of adherent cells. The cells were cultured for three days (about three doubling times). The cells were then collected by centrifugation, and 100 μL of the culture supernatant was replaced by the CellTiter-Glo reagent. After incubation for 15 minutes at room temperature, the plate was read with a luminometer.

[3] = tested on: HUVEC-2 (human umbilical vein endothelial cells); experiment: HUVEC VEGF-dependent proliferation assay (BrdU); format: cell-based; conditions: VEGF (25 ng/mL)-dependent proliferation, read-out: HUVEC IC50
How it was run: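 HUVEC-2 cells on gelatin got serially diluted compound (0.5% DMSO final), and VEGF (25 ng/mL) was added 2 hr later. BrdU (10 μM) went in after one day, with labelling for another day. VEGF-dependent proliferation was read by BrdU detection, in triplicate.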

SMILES	IC50 (Aurora A kinase) [nM]	IC50 (Aurora B kinase) [nM]	IC50 (VEGFR2 kinase) [nM]	IC50 (p-H3 in HCT116 cells) [nM]	IC50 [1] [nM]	IC50 [2] [nM]	IC50 [3] [nM]
NC(=O)/C(=C1\Nc2ccccc2S1)c1nccc(C(F)(F)F)n1 [Compound 2A]	30	6	90	2000	2000	3000	50
NC(=O)/C(=C1\Nc2ccc(C(=O)N3CCNCC3)cc2S1)c1nccc(C(F)(F)F)n1 [Compound 61A]	20	10	4	30	100	200	20
NC(=O)/C(=C1\Nc2ccc(CCc3cccnc3)cc2S1)c1nccc(C(F)(F)F)n1 [Compound 99A]	20	7	100	1000	3000	2000	
NC(=O)/C(=C1\Nc2ccc(-c3cccnc3)cc2S1)c1nccc(C(F)(F)F)n1 [Compound 108A]	10	10	60	3000	2000	2000	
NC(=O)/C(=C1\Nc2ccc(CCN3CCC(F)(F)CC3)cc2S1)c1nccc(C(F)(F)F)n1 [Compound 104A]	30	10	60	2000	3000	1000	
CCN(C(=O)[C@@H]1CCCN1C)c1ccc2c(c1)N/C(=C(/C(N)=O)c1nccc(C(F)(F)F)n1)N2 [Compound 145A]	20	4	10	80	200	400	
Cc1cc2c(cc1C)NC(=C(C(N)=O)c1ncc(C(=O)NCCN3CCOCC3)c(C(F)(F)F)n1)N2 [Compound 136A]	20		30	200	800	200	200
NC(=O)C(=C1Nc2ccccc2S1)c1ncc(C(=O)O)c(C(F)(F)F)n1 (single isomer, unassigned) [Compound 5A, 2-[benzothiazol-2(3H)-ylidene]-2-(5-carboxy-4-trifluoromethylpyrimidin-2-yl)acetamide]	20	8	20	3000	10000	> 10000	
NC(=O)/C(=C1\Nc2ccccc2S1)c1nc(C(F)(F)F)cc(C(F)(F)F)n1 [Compound 9A]	10	7	60	> 5000	> 20000	> 20000	
NC(=O)/C(=C1\Nc2ccc(-c3ccccn3)cc2N1)c1nccc(C(F)(F)F)n1 [Compound 109A]	20	9	50	> 5000	3000	500	
NC(=O)/C(=C1\Nc2ccccc2S1)c1nc(-c2cccnc2)cc(C(F)(F)F)n1 [Compound 10A]	10	10	40	5000	1000	2000	
COc1ccnc(C(C(N)=O)=C2Nc3ccccc3N2)n1 [Compound 17A]	300	30	1	600	5000	5000	

Further lines, with some results ahead:

IC50 (Aurora A kinase) [nM]	IC50 (Aurora B kinase) [nM]	IC50 (VEGFR2 kinase) [nM]	IC50 (p-H3 in HCT116 cells) [nM]	SMILES	IC50 [1] [nM]	IC50 [2] [nM]	IC50 [3] [nM]
10	5	6	100	CN(C)CC(=O)Nc1ccc2c(c1)N/C(=C(/C(N)=O)c1nccc(C(F)(F)F)n1)N2 [Compound 73A]	200	200	100
10	6	20	300	CCN(CCCN1CCOCC1)C(=O)c1ccc2c(c1)S/C(=C(/C(N)=O)c1nccc(C(F)(F)F)n1)N2 [Compound 42A]	500	30	40
3	10	20	200	NC(=O)/C(=C1\Nc2ccc(C(=O)NCCN3CCOCC3)cc2N1)c1nccc(C(F)(F)F)n1 [Compound 53A]	300	200	30
5	6	10	400	NC(=O)/C(=C1\Nc2ccc(NC(=O)C3(N)CC3)cc2N1)c1nccc(C(F)(F)F)n1 [Compound 34A]	600	200	
4	9	3	100	CCN(CCO)C(=O)c1ccc2c(c1)S/C(=C(/C(N)=O)c1nccc(C(F)(F)F)n1)N2 [Compound 31A]	200	1000	
7	6	40	100	NC(=O)C(=C1Nc2ccccc2N1)c1nc(N)cc(C(F)(F)F)n1 [Compound 12A]	400	200	
2	3	6	40	NC(=O)/C(=C1\Nc2ccc(CCn3ccnc3)cc2N1)c1nccc(C(F)(F)F)n1 [Compound 96A]	300	100	
6	10	40	200	NC(=O)/C(=C1\Nc2ccc(C(=O)NCCCn3ccnc3)cc2S1)c1nccc(C(F)(F)F)n1 [Compound 46A]	400	200	
7	20	30	> 5000	CC(C)(C)c1cc(C(F)(F)F)nc(C(C(N)=O)=C2Nc3ccccc3S2)n1 (single isomer, unassigned) [Compound 7A, 2-[benzothiazol-2(3H)-ylidene]-2-[4-tert-butyl-6-(trifluoromethyl)pyrimidin-2-yl]acetamide]	6000	80	
8	20	40	> 5000	NC(=O)/C(=C1\Nc2ccc(-c3cccnc3)cc2N1)c1nccc(C(F)(F)F)n1 [Compound 107A]	5000	1000	
2	10	9	500	NC(=O)/C(=C1\Nc2ccc(NC(=O)C3CC3)cc2N1)c1nccc(C(F)(F)F)n1 [Compound 33A]	300	300	
